# Test results taken from EP0410366A2, “Anthracycline derivatives” (BEHRINGWERKE Aktiengesellschaft, priority 1989, dated 1991).
# Like-named read-outs stand apart in the source and are kept apart here.
# Experiments:
# L 1210 Leukämiezellen = assay: Cytotoxicity against L 1210 leukemia cells (stem cell assay, SCA; colony formation in soft agar); format: cell-based, Maus; conditions: Mus musculus
# Description: Der Test wurde entsprechend der von Hamburger und Salmon beschriebenen Methodik mit den unten beschriebenen Modifikationen durchgeführt.
# Konditioniertes Medium wurde durch McCoy 5A Medium ersetzt. Als Folge der hohen Klonierungsrate der L 1210 Leukämiezellen in Soft Agar wurde die Anzahl an Tumorzellen pro Platte auf 5 x 10² reduziert.
# Die Zellen wurden mit unterschiedlichen Konzentrationen der Testsubstanz für 1 h bei 37° C inkubiert. Anschließend wurden die Zellen zweimal mit McCoy 5A Medium gewaschen und anschließend in einem Zwei-Schichten-Agar System als obere Schicht entsprechend der Methode von Hamburger und Salmon ausplatiert.
# Zusätzliche Parallelexperimente wurden unter Verwendung einer kontinuierlichen Inkubationszeit durchgeführt, wobei unterschiedliche Konzentrationen der Testsubstanz der oberen Agarschicht vor Ausplatieren der Zellen zugemischt wurden.
# Die Platten wurden in einem Brutschrank mit 5 % CO₂, 20 % 02 und 95 % relativer Luftfeuchte für 5-7 Tage inkubiert. Nach dieser Zeit wurden Kolonien mit einem Durchmesser von 60 µm mit Hilfe eines Invertoskopes gezählt.
# Die Ergebnisse wurden angegeben als prozentualer Anteil der Kolonien in behandelten versus unbehandelten Gruppen. Der Variationskoeffizient bei wiederholten Experimenten war kleiner als 15 %.
# Aus der Dosis-Wirkungskurve wurde die IC₅₀ für die kontinuierliche und einstündige Inkubation bestimmt (Tab. 1).
# L 1210 = assay: Proliferation test (MTT reduction), L 1210; format: cell-based, Maus; conditions: Mus musculus, read-out: IC₅₀ MTT L1210
# Description: (§1) L 1210, A 549 oder HT 29 in exponentieller Wachstumsphase werden in einer Zelldichte von 5 x 10³ Zellen/ml in RPMI 1640 in einer 96 Well Mikrotiterplatte für 72 h mit unterschiedlichen Konzentrationen der Testsubstanz bei 37° C, 5 % CO₂ und 95 % relativer Luftfeuchte inkubiert. Kontrollexperimente erhalten anstelle der Testsubstanz lediglich Wachstumsmedium. Für jede Testsubstanz sowie für die Kontrolle werden 4fach Bestimmungen angesetzt. Nach 65 h Inkubation werden 50 µl einer MTT-Lösung (2.5 mg/ml in Phosphat-gepuffertem Kochsalz) zugegeben. In Gegenwart lebender Zellen wird MTT zu einem dunkelroten unlöslichen Formazanfarbstoff reduziert. Diese Reaktion ist nach 7 h (L 1210 Zellen) bzw. nach 24 h (A 549, HT 29 Zellen) beendet, und das überstehende Medium wird sorgfältig abgesaugt. Der unlösliche Farbstoff wird durch Zugabe von 100 µl DMSO aufgelöst und die Extinktion der so entstehenden Lösung anschließend für jedes Well in einem Multiscan Photometer 340 CC der Fa. Flow bei einer Wellenlänge von 492 nm vermessen.
# (§2) Aus dem Verhältnis der Extinktionen behandelter und unbehandelter Zellen ergibt sich eine Dosis-Wirkungskurve, aus der die Konzentration, die gerade 50 % der Zellen (IC₅₀) abtötet, abgelesen werden kann. Für wiederholte Untersuchungen beträgt der Variationskoeffizient weniger als 15 % (Tabelle 1). Tabelle 1
# A 549 = assay: Proliferation test (MTT reduction), A 549; format: cell-based; conditions: Homo sapiens, read-out: IC₅₀ MTT A 549
# Description: as §1, §2
# HT 29 = assay: Proliferation test (MTT reduction), HT 29; format: cell-based; conditions: Homo sapiens, read-out: IC₅₀ MTT HT 29
# Description: as §1, §2
# L 1210 Leukämie = format: in vivo; conditions: for opt. Dosis: dose with the largest antitumoral effect
# Description: Methodik: Ascitesflüssigkeit wird unter sterilen Bedingungen DBA2 Mäusen (weiblich, 18-20 g) 7 Tage nach Implantation entnommen. Der Ascites wird dreimal mit PBS gewaschen, gezählt und auf eine Zellzahl von 10⁴ in 0.2 ml PBS eingestellt.
# 10⁴ Zellen, suspendiert in 0.2 ml PBS, werden anschließend DBF1 Mäusen (weiblich, 18-20 g) intravenös injiziert. 6 Tiere pro Gruppe werden für jede Substanzkonzentration bzw. als Kontrolle eingesetzt.
# • a) Die Tiere werden am Tag 1 und 5 nach Injektion der Testsubstanz gewogen. Gewichtsverlust von mehr als 20 % am Tag 5 wird als Indikator einer toxischen Substanzwirkung angesehen. • b) Am Ende des Experimentes (Tod aller Tiere oder überlebende Tiere am Tag 60) wird die mittlere Überlebenszeit der Tiere in den jeweiligen Gruppen bestimmt, sofern am Tag 5 des Experimentes mindestens 65 % der Tiere noch gelebt hatten. Die mittlere Überlebenszeit wird ausschließlich für im Verlaufe des Experimentes sterbende Tiere bestimmt. Langzeit-überlebende (LTS) werden bei dieser Berechnung nicht berücksichtigt und gesondert aufgeführt.
# Aus der mittleren Überlebenszeit (MSTt) der behandelten Gruppen sowie der Kontrollgruppen (MSTc) wird die antitumorale Wirksamkeit (T/C) für die jeweilige Substanzkonzentration in Prozent der unbehandelten Kontrolle entsprechend der folgenden Formel bestimmt: [formula]
# T/C Werte größer als 125 % werden als Indikator einer signifikanten antitumoralen Wirksamkeit der Testsubstanz angesehen. Die Dosis, die den größten antitumoralen Effekt (optimale Dosierung) zeigte, wurde ermittelt. Tiere, die am Tag 60 des Experimentes noch leben, werden als Longterm-Survivors getrennt aufgeführt. Tabelle 2
# [1] = L 1210 iv, treatment iv, Q3D (Verbind. 1: 2x, Pirarubicin: 3x)
# [2] = L1210, read-out: IC₅₀ SCA L 1210 1 h
structure (smiles),measurement,setting,value
"COc1cccc2c1C(=O)c1c(O)c3c(c(O)c1C2=O)C[C@@](O)(C(=O)CO)C[C@@H]3O[C@H]1C[C@H](N)[C@H](O[C@@H]2CCCCO2)[C@H](C)O1 [Pirarubicin, 4′-O-THP-Doxorubicin, reference compound]",IC50,"L 1210 Leukämiezellen; L1210, 1 h incubation at 37° C, colonies counted after 5-7 days, read-out: IC₅₀ SCA L 1210 1 h",0.01 µg/mL
same,IC50,"L 1210 Leukämiezellen; L1210, continuous incubation, colonies counted after 5-7 days, read-out: IC₅₀ SCA L 1210 cont",0.004 µg/mL
same,IC50,"L 1210; L1210, 72 h incubation",0.004 µg/mL
same,IC50,"A 549; A549, 72 h incubation",0.15 µg/mL
same,IC50,"HT 29; HT-29, 72 h incubation",0.016 µg/mL
same,opt. Dosis,L 1210 Leukämie; [1],4.7 mg/kg/inj
same,Effektivität T/C %,L 1210 Leukämie; iv,178%
"COc1cc(OC)cc(C(C)(C)OC(=O)N[C@H]2C[C@H](O[C@H]3C[C@](O)(C(=O)CO)Cc4c(O)c5c(c(O)c43)C(=O)c3c(OC)cccc3C5=O)O[C@@H](C)[C@H]2OC2CCCCO2)c1 (stereo partly drawn) [Verbindung 1, 7-O-(3-(3 ,5′-Dimethoxy-α,α-dimethyl-benzyloxycarbonylamino)-4-O-tetrahydropyranyl-2,3,6-tridesoxy-alpha-L-lyxohexopyranosyl)-adriamycinon]",IC50,L 1210 Leukämiezellen; [2],5.3 µg/mL
same,IC50,"L 1210; L1210, 72 h",0.027 µg/mL
same,IC50,"A 549; A549, 72 h",0.023 µg/mL
same,IC50,"HT 29; HT-29, 72 h",0.04 µg/mL
same,zytostatische Wirksamkeit,"L 1210 Leukämie; ""in vivo"" L 1210-Testmodell, compared with Doxorubicin or Tetrahydropyranyl-Doxorubicin",erheblich bessere
same,Effektivität toxisch,"L 1210 Leukämie; animals per group with toxic effect, at optimal dose",1/6
same,Effektivität T/C %,"L 1210 Leukämie; at optimal dose, mean survival time treated vs control, L 1210 iv, treatment iv, Q3D (Verbind. 1: 2x, Pirarubicin: 3x)",435%
same,opt. Dosis,L 1210 Leukämie; [1],20 mg/kg/inj
same,Effektivität LTS,"L 1210 Leukämie; long-term survivors at day 60, animals per group, at optimal dose",5/6
"COc1cc(OC)cc(C(C)(C)OC(=O)N[C@H]2C[C@H](O[C@H]3C[C@](O)(C(=O)CO)Cc4c(O)c5c(c(O)c43)C(=O)c3c(OC)cccc3C5=O)O[C@@H](C)[C@H]2O)c1 [Verbindung 2, 7-O-(3-(3 ,5′-Dimethoxy-α,α-dimethyl-benzyloxycarbonylamino)-2,3,6-tridesoxy-alpha-L-lyxohexopyranosyl)-adriamycinon]",IC50,L 1210 Leukämiezellen; [2],6.4 µg/mL
same,IC50,"L 1210; L1210, 72 h",0.11 µg/mL
same,IC50,"A 549; A549, 72 h",0.11 µg/mL
same,IC50,"HT 29; HT-29, 72 h",0.13 µg/mL
"COc1cc(OC)cc(C(C)(C)OC(=O)N[C@H]2C[C@H](O[C@H]3C[C@](O)(C(=O)CO)Cc4c(O)c5c(c(O)c43)C(=O)c3c(OC)cccc3C5=O)O[C@@H](C)[C@@H]2O)c1 [Verbindung 3, 7-O-(3-(3 ,5′-Dimethoxy-α,α-dimethyl-benzyloxycarbonylamino)-2,3,6-tridesoxy-alpha-L-arabinohexopyranosyl)-adriamycinon]",IC50,"L 1210; L1210, 72 h",0.02 µg/mL
same,IC50,"A 549; A549, 72 h",0.04 µg/mL
same,IC50,"HT 29; HT-29, 72 h",0.11 µg/mL
"COc1cc(OC)cc(C(C)(C)OC(=O)N[C@H]2C[C@H](O[C@H]3C[C@](O)(C(C)=O)Cc4c(O)c5c(c(O)c43)C(=O)c3c(OC)cccc3C5=O)O[C@@H](C)[C@H]2O)c1 [Verbindung 4, 7-O-(3-(3 ,5′-Dimethoxy-α,α-dimethyl-benzyloxycarbonylamino)-2,3,6-tridesoxy-alpha-L-lyxohexopyranosyl)-daunomycinon]",IC50,L 1210 Leukämiezellen; [2],4.5 µg/mL
same,IC50,"L 1210; L1210, 72 h",0.14 µg/mL
same,IC50,"A 549; A549, 72 h",0.13 µg/mL
same,IC50,"HT 29; HT-29, 72 h",0.13 µg/mL
"CC[C@@]1(O)C[C@H](O[C@H]2C[C@H](NC(=O)OC(C)(C)c3cc(OC)cc(OC)c3)[C@H](O)[C@H](C)O2)c2c(O)c3c(c(O)c2[C@H]1O)C(=O)c1cccc(O)c1C3=O [Verbindung 8, 7-O-(3-(3,5-Dimethoxy-alpha,alpha-dimethyl-benzyloxycarbonylamino)-2,3,6-tridesoxy-alpha-L-lyxohexopyranosyl)-β-rhodomycinon]",IC50,L 1210 Leukämiezellen; [2],0.47 µg/mL
same,IC50,"L 1210; L1210, 72 h",0.004 µg/mL
same,IC50,"A 549; A549, 72 h",< 0.004 µg/mL
same,IC50,"HT 29; HT-29, 72 h",< 0.004 µg/mL
